Columns and labels:
BJ primary cells = test: Sensitization of BJ primary cells by co-treatment (calcein AM viability); format: cell-based, human; details: BJ (or BJ-TERT) cells, simultaneous treatment with camptothecin
Source text: (A-C) Western blot of lysates from BJ, BJ-TERT, BJ-TERT/LT/ST, BJ-TERT/LT/ST/RAS^V12, BJ-TERT/LT/RAS^V12 and BJ-TERT/LT/RAS^V12/ST cells with an antibody directed against topoisomerase II (A) or TOPI (B, C). In panel (C), cells were transfected with a siRNA directed against TOPI, lamic A/C or with a control double strand DNA duplex of the same length (TOPI dsDNA). In each case, the blot was probed with an antibody against eIF-4E to identify differences in the amount of protein loaded. The relative amount is quantitated below each band. (D) A TOPI siRNA prevents cell death caused by camptothecin in engineered tumor cells. Cell number was determined after transfection with a siRNA directed against TOPI and treatment with the indicated concentrations of camptothecin. (E) Okadaic acid, an inhibitor of PP2A and other cellular phosphatases, sensitizes primary human cells to camptothecin. BJ primary cells were treated simultaneously with the indicated concentrations of both camptothecin and okadaic acid and the effect on calcein AM viability staining was determined. […] BJ primary cells were treated with the indicated concentrations of okadaic acid and the expression level of TOPI was determined by western blot. The relative amount is quantitated below each band.
The compounds in group (iii) are camptothecin (CPT) and a novel compound from a combinatorial library, which Applicants have named erastin, for eradicator of RAS and ST-expressing cells (FIG. 2). Efficient CPT-induced and erastin-induced cell death requires the presence of both ST and RAS^V12 (FIGS. 3 and 4 and Table 1). Although CPT and erastin have a similar genetic basis of selectivity, they have distinct mechanisms of action. CPT is partially active in cells lacking RB function (via expression of E7), whereas erastin is not, and CPT requires two days to cause death in BJ-TERT/LT/ST/RAS^V12 cells, while erastin is 100% effective within 18 hours (FIGS. 3 and 4). […]

PANC-1 xenografts = test: PANC-1 tumor treatment study; format: in vivo; details: immunodeficient nude mouse; once a day for five consecutive days
Procedure: The experimental plan for the PANC-1 study was essentially identical to that of the HT-1080 study outlined above in Example 10 with the following exceptions: approximately 30-40 mg fragment of passaged PANC-1 tumor tissue was implanted subcutaneously in the right flank of an immunodeficient nude mouse. Tumor growth was monitored daily and when the tumors reached approximately 100 mm^3, animals harboring similarly sized tumors were group matched and compound dosing was initiated. Administration of compound 5 occurred once a day for five consecutive days at the doses listed below. In the PANC-1 xenografts, gemcitabine, administered at the maximum tolerated dose for the model, was used as a control. The gemcitabine regimen was 180 mg/kg […] on every third day over a period of 9 days.

HT-1080 xenografts = test: HT-1080 tumor treatment study; format: in vivo, mouse; details: nude Balb/c mice; 100 or 50 mg/Kg, QD×5 days, IP
Procedure: Nude Balb/c (Nu/Nu strain, Charles River Laboratories), female, 5-6 week old (˜20 g average body weight).
Both compounds were formulated in an identical manner. For the 100 mg/kg dose level, each compound was delivered at a concentration of 10.0 mg/ml, in an injection volume of 0.2 ml. For the 50 mg/kg dose level, each compound was delivered at a concentration of 5.0 mg/ml, in an injection volume of 0.2 ml. For both dose levels, the vehicle contained 0.025% Tween-80, 0.01% benzyl alcohol, 35 mM acetic acid (HOAc), 100 mM potassium phosphate-buffer, and 32 mM sucrose, pH=6.5.
• A: PRLX compound 6 @ 100 mg/Kg, QD×5 days, IP, n=8 • B: PRLX compound 6 @ 50 mg/Kg, QD×5 days, IP, n=8 • C: PRLX compound 5 @ 100 mg/Kg, QD×5 days, IP, n=8 • D: PRLX compound 5 @ 50 mg/Kg, QD×5 days, IP, n=8 • E: Vehicle Control, QD×5 days, IP, n=8 • F: Untreated Control, n=8 Treatment Schedule:
Beginning when the mean tumor volume reached ˜200 mm^3, and continuing through day 5, every day, each animal was administered a single IP injection of one of the above treatments, for a total of 5 doses. […]
Starting on Day 1, all animals were weighed, and tumor dimensions (length (L) and width (W)) were measured, every other day. […]
The resulting tumor volume values were averaged for each study group for each time point, and were then plotted against time. Variance was expressed as standard error of the mean (±SEM).

[1] = system: BJ-TERT/LT/ST/RAS^V12 tumorigenic cells; test: Calcein AM viability assay, BJ-TERT/LT/ST/RAS^V12 cells; format: cell-based, human
Source text: Described here is work carried out to identify compounds with increased potency or activity in the presence of hTERT, LT, ST, E6, E7 or RAS^V12. Although the work described herein made use of hTERT, LT, ST, E6, E7 and RAS^V12 as transforming genes, future studies can make use of a wide variety of cancer-associated alleles using this methodology in order to define the signaling networks that involve many oncogenes and tumor suppressors. Engineered cell lines with these genetic elements were used to screen 23,550 compounds, including 20,000 compounds from a combinatorial library, 1,990 compounds from the National Cancer Institute diversity collection, and 1,540 biologically active known compounds that were selected and purchased by Applicant and formatted into a screenable collection. […] Cell viability was measured using the dye calcein acetoxymethyl ester (calcein AM) (Wang et al., 1993, Hum. Immunol. 37, 264-270), which is a non-fluorescent compound that freely diffuses into cells. […]
Calcein acetoxylmethyl ester (AM) is a cell membrane-permeable, non-fluorescent compound that is cleaved by intracellular esterases to form the anionic, cell-impermeable, fluorescent compound calcein. […] Total fluorescence intensity in each well was recorded on a Packard Fusion platereader, and converted to a percent inhibition of signal by subtracting the instrument background and dividing by the average signal obtained when cells were not treated with any compound. […]
Mean RFU (relative fluorescence units) for untreated cells was calculated by averaging columns 1, 2, and 23 (wells with cells but lacking compounds). The calcein background was calculated by averaging column 24 (wells with calcein, but lacking cells). Percentage inhibition of each well was calculated as [1−(RFU−calcein control)/(untreated cell−calcein control)*100]. […]

engineered cell lines = test: Selectivity across the engineered cell lines (calcein AM IC50 ratios); format: cell-based, human; details: from selectivity ratio for each subsequent pair of cell lines in a series
Procedure: To calculate this selectivity score between two cell lines, the IC50 for a compound in one cell line was divided by the IC50 for the same compound in a second cell line. […] The “tumor selectivity score” was calculated for each compound, by dividing the IC50 value for the compound in the parental, primary BJ cells by the IC50 value for the compound in engineered BJ-TERTALT/ST/RAS^V12 cells, containing all four genetic elements required to create tumorigenic cells (Table 1).
Applicants sought to determine the genetic basis of selectivity for each compound. That is, for each compound, they attempted to define the gene or combination of genes responsible for rendering cells sensitive to the compound (Table 1).
The IC50 in primary BJ cells was divided by the IC50 in BJ-TERT/LT/ST/RAS^V12 tumorigenic cells to obtain a tumor selectivity ratio for each compound. The compound selectivity for each genetic element was determined by calculating the selectivity ratio for each subsequent pair of cell lines in a series.

COc1cc([C@@H]2c3cc4c(cc3[C@H](O)[C@H]3COC(=O)[C@H]23)OCO4)cc(OC)c1OC [podophyllotoxin]
sensitization to camptothecin (BJ primary cells): does not sensitize BJ or BJ-TERT cells to CPT

CCOc1ccccc1-n1c(C(C)N2CCNCC2)nc2ccccc2c1=O (stereo not shown) [Compound 6]
antitumor activity in PANC-1 xenografts (tumor volume) (PANC-1 xenografts): tumor growth inhibition
antitumor activity in HT-1080 xenografts (tumor volume) (HT-1080 xenografts): tumor growth inhibition

CCOc1ccccc1-n1c(C(C)N2CCN(C(=O)COc3ccc(Cl)cc3)CC2)nc2ccccc2c1=O (stereo not shown) [Erastin, erastin]
effectiveness of cell killing ([1]; BJ-TERT/LT/ST/RAS^V12 cells, within 18 hours): 100%
time to irreversible, non-apoptotic cell death ([1]; ST- and RAS^V12-dependent): 12 to 24 h

COc1cccc2c1C(=O)c1c(O)c3c(c(O)c1C2=O)C[C@@](O)(C(C)=O)C[C@@H]3O[C@H]1C[C@H](N)[C@H](O)[C@H](C)O1 [Daunorubicin, daunorubicin]
Genetic basis of Selectivity (engineered cell lines): TERT/RB

CS[C@H]1SC[C@H]2C(=O)N(C)[C@@H](C(C)C)C(=O)OC[C@@H](NC(=O)c3cnc4ccccc4n3)C(=O)N[C@@H](C)C(=O)N(C)[C@@H]1C(=O)N(C)[C@@H](C(C)C)C(=O)OC[C@@H](NC(=O)c1cnc3ccccc3n1)C(=O)N[C@@H](C)C(=O)N2C [Echinomycin, echinomycin]
Genetic basis of Selectivity (engineered cell lines): non-specific

NC(=O)c1cn([C@@H]2O[C@H](CO)[C@@H](O)[C@H]2O)c2ncnc(N)c12 [Sangivamycin, sangivamycin]
Genetic basis of Selectivity (engineered cell lines): non-specific

COc1ccc(C[C@H]2C(=O)N[C@@H](C)C(=O)N(C)[C@@H]3C(=O)N(C)[C@@H](Cc4ccc(O)c(c4)Oc4ccc(cc4)[C@@H]3O)C(=O)N[C@H](C)C(=O)N[C@@H](C)C(=O)N2C)cc1 [Bouvardin]
Genetic basis of Selectivity (engineered cell lines): non-specific

O=C1c2c(O)ccc(O)c2C(=O)c2c(NCCNCCO)ccc(NCCNCCO)c21 [Mitoxantrone, mitoxantrone]
Genetic basis of Selectivity (engineered cell lines): TERT/RB

COc1cccc2c1C(=O)c1c(O)c3c(c(O)c1C2=O)C[C@@](O)(C(=O)CO)C[C@@H]3O[C@H]1C[C@H](N)[C@H](O)[C@H](C)O1 [Doxorubicin, doxorubicin]
Genetic basis of Selectivity (engineered cell lines): TERT/RB

CCOc1ccccc1-n1c(CN2CCNCC2)nc2ccccc2c1=O [Compound 5, 3-(2-ethoxyphenyl)-2-(piperazin-1-ylmethyl)quinazolin-4(3H)-one]
antitumor activity in PANC-1 xenografts (tumor volume) (PANC-1 xenografts): tumor regression
antitumor activity in HT-1080 xenografts (tumor volume) (HT-1080 xenografts): robust tumor regression

From patent US7615554B2, “Erastin and erastin binding proteins, and uses thereof” (Prolexys Pharmaceuticals, Inc., priority 2005, dated 2009)
